Laboratory results published in ChEMBL document CHEMBL1201862, “PubChem BioAssay data set” (2004).
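Tested at 5 concentrations; 48 h exposure; 96-well plates; endpoints linearly interpolated, else capped at highest concentration. Abbreviation: GI50, concentration required for 50% inhibition of growth.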 Active and inactive are the calls of the source. No stated cut-off is given here; in the data, active = GI50 up to about 1.1 µM and inactive = higher.

Assays:
Test in all cases: inhibition of tumour cell growth, NCI panel, 48 h
786-0 = system: 786-0
A549 = system: A549
ACHN = system: ACHN
COLO 205 = system: COLO 205
HCC 2998 = system: HCC 2998
HCT-15 = system: HCT-15
HL-60 = system: HL-60
M14 = system: M14
MDA-MB-435 = system: MDA-MB-435
NCI-H23 = system: NCI-H23
NCI-H460 = system: NCI-H460
OVCAR-8 = system: OVCAR-8
PC-3 = system: PC-3
SNB-19 = system: SNB-19
SNB-75 = system: SNB-75
SW-620 = system: SW-620
T47D = system: T47D
TK-10 = system: TK-10
U-251 = system: U-251
UO-31 = system: UO-31

Measured: GI50

CN(C)c1ccc(C(=N/N=C2\C(=O)Nc3ccccc32)c2ccc(N(C)C)cc2)cc1
inactive: NCI-H23 1.73 µM | PC-3 1.58 µM | SNB-19 1.22 µM | TK-10 1.73 µM | UO-31 2.01 µM
active: 786-0 0.859 µM | A549 0.625 µM | ACHN 1.04 µM | COLO 205 0.358 µM | HCC 2998 0.643 µM | HL-60 0.363 µM | M14 0.348 µM | MDA-MB-435 0.0214 µM | NCI-H460 0.405 µM | OVCAR-8 1 µM | SNB-75 0.214 µM | SW-620 0.247 µM | T47D 0.771 µM | U-251 0.49 µM
0.188 µM: HCT-15

NC(=O)c1ccc(S(=O)(=NS(=O)(=O)c2ccccc2)c2ccc(C(N)=O)cc2)cc1
inactive: 786-0 > 100 µM | A549 > 100 µM | ACHN > 100 µM | COLO 205 > 100 µM | HCC 2998 > 100 µM | HL-60 > 100 µM | M14 > 100 µM | MDA-MB-435 > 100 µM | NCI-H23 > 100 µM | NCI-H460 > 100 µM | OVCAR-8 > 100 µM | PC-3 > 100 µM | SNB-19 > 100 µM | SNB-75 > 100 µM | SW-620 > 100 µM | T47D > 100 µM | TK-10 > 100 µM | U-251 > 100 µM | UO-31 > 100 µM
> 100 µM: HCT-15

COc1ccc(-c2c3c(n(C4OC(COC(C)=O)C(OC(C)=O)C(OC(C)=O)C4OC(C)=O)c(=S)c2C#N)CCCC3)cc1 (stereo not given)
inactive: 786-0 > 100 µM | A549 64.1 µM | ACHN 55.6 µM | COLO 205 69.5 µM | HCC 2998 > 100 µM | HL-60 62.5 µM | M14 > 100 µM | MDA-MB-435 > 100 µM | NCI-H23 37.9 µM | NCI-H460 39.8 µM | OVCAR-8 69 µM | PC-3 19.5 µM | SNB-19 24.7 µM | SNB-75 16.4 µM | SW-620 51.5 µM | T47D 34.3 µM | TK-10 > 100 µM | U-251 45 µM | UO-31 64.7 µM
41.5 µM: HCT-15

CN(C)CCCNC(=O)CCNC(=O)c1cc(NC(=O)c2cc(NC(=O)c3cc(NC(=O)c4nc(NC(=O)CCCNC(=O)c5cc(NC(=O)c6cc(NC(=O)c7cc(NC(=O)c8nccn8C)cn7C)cn6C)cn5C)cn4C)cn3C)cn2C)cn1C
inactive: 786-0 > 100 µM | A549 > 100 µM | ACHN > 100 µM | COLO 205 > 100 µM | HCC 2998 > 100 µM | HL-60 > 100 µM | M14 > 100 µM | MDA-MB-435 > 100 µM | NCI-H23 > 100 µM | NCI-H460 > 100 µM | OVCAR-8 > 100 µM | PC-3 > 100 µM | SNB-19 > 100 µM | SNB-75 > 100 µM | SW-620 > 100 µM | T47D > 100 µM | TK-10 > 100 µM | U-251 > 100 µM | UO-31 > 100 µM
> 100 µM: HCT-15

C[C@]12CC[C@H]3[C@@H](CCC4=CC(=O)C=C[C@@]43OC(=O)C(F)(F)F)[C@@H]1CCC2=O
> 100 µM: HCT-15
inactive: 786-0 > 45.6 µM | A549 > 52.6 µM | ACHN > 100 µM | COLO 205 > 100 µM | HCC 2998 > 100 µM | HL-60 > 100 µM | M14 > 100 µM | MDA-MB-435 > 100 µM | NCI-H23 > 100 µM | NCI-H460 > 100 µM | OVCAR-8 > 100 µM | PC-3 > 100 µM | SNB-19 > 33.6 µM | SNB-75 > 100 µM | SW-620 > 100 µM | T47D > 100 µM | TK-10 > 100 µM | U-251 > 100 µM | UO-31 > 100 µM

CC(O)C1(CNc2cc(Cl)nc(N)n2)CCCC1 (stereo not given)
> 100 µM: HCT-15
inactive: 786-0 > 100 µM | A549 > 100 µM | ACHN > 100 µM | COLO 205 > 100 µM | HCC 2998 23.4 µM | HL-60 > 100 µM | M14 > 100 µM | MDA-MB-435 > 100 µM | NCI-H23 90.4 µM | NCI-H460 > 100 µM | OVCAR-8 > 100 µM | PC-3 > 100 µM | SNB-19 > 100 µM | SNB-75 71 µM | SW-620 > 100 µM | T47D > 100 µM | TK-10 > 100 µM | U-251 > 100 µM | UO-31 > 100 µM

NCC(=O)NC(CO)C(=O)O (stereo not given)
inactive: 786-0 > 100 µM | A549 > 100 µM | ACHN > 100 µM | COLO 205 > 100 µM | HCC 2998 > 100 µM | HL-60 > 100 µM | M14 > 100 µM | MDA-MB-435 > 100 µM | NCI-H23 > 100 µM | NCI-H460 > 100 µM | OVCAR-8 > 100 µM | PC-3 > 100 µM | SNB-19 > 100 µM | SNB-75 > 100 µM | SW-620 > 100 µM | T47D > 100 µM | TK-10 > 100 µM | U-251 > 100 µM | UO-31 > 100 µM
> 100 µM: HCT-15

CCC1(OC(=O)CNC)C(=O)OCc2c1cc1n(c2=O)Cc2cc3ccccc3nc2-1 (stereo not given)
active: 786-0 < 0.01 µM | A549 < 0.01 µM | ACHN < 0.01 µM | COLO 205 0.148 µM | HCC 2998 0.204 µM | HL-60 < 0.01 µM | M14 < 0.0105 µM | MDA-MB-435 0.0234 µM | NCI-H23 < 0.01 µM | NCI-H460 < 0.01 µM | OVCAR-8 0.0126 µM | PC-3 0.0269 µM | SNB-19 < 0.01 µM | SNB-75 < 0.0104 µM | SW-620 < 0.01 µM | T47D < 0.01 µM | U-251 < 0.01 µM | UO-31 < 0.0125 µM
inactive: TK-10 1.29 µM
0.0942 µM: HCT-15

Cc1cc2nnc(C(N)=O)c(N)c2cc1C
> 100 µM: HCT-15
inactive: 786-0 29.1 µM | A549 > 100 µM | ACHN > 100 µM | COLO 205 > 100 µM | HCC 2998 > 100 µM | HL-60 > 100 µM | M14 > 100 µM | MDA-MB-435 > 100 µM | NCI-H23 > 100 µM | NCI-H460 > 100 µM | OVCAR-8 47.8 µM | PC-3 > 100 µM | SNB-19 > 100 µM | SNB-75 12.9 µM | SW-620 > 100 µM | T47D > 100 µM | TK-10 > 100 µM | U-251 > 100 µM | UO-31 > 100 µM

O=C(OC1=CCN(Br)C1=O)C1=C(O)C(=O)N(Br)C1
inactive: 786-0 16.7 µM | A549 42.9 µM | ACHN 33.9 µM | COLO 205 23.7 µM | HCC 2998 53.8 µM | HL-60 24.5 µM | M14 51.8 µM | MDA-MB-435 33.1 µM | NCI-H23 32.4 µM | NCI-H460 38.3 µM | OVCAR-8 31.3 µM | PC-3 29.3 µM | SNB-19 20.2 µM | SNB-75 24.3 µM | SW-620 26.5 µM | T47D 18.4 µM | TK-10 33 µM | U-251 22.5 µM | UO-31 45.4 µM
57.3 µM: HCT-15

CN(C)C=C1C(=O)c2c(Br)sc(Br)c2C1=O
18.1 µM: HCT-15
inactive: 786-0 33.9 µM | A549 36.4 µM | ACHN 29.6 µM | COLO 205 18.5 µM | HCC 2998 13 µM | HL-60 16.3 µM | M14 18.7 µM | MDA-MB-435 14.1 µM | NCI-H23 15.1 µM | NCI-H460 20.6 µM | OVCAR-8 22.9 µM | PC-3 20.7 µM | SNB-19 28.7 µM | SNB-75 17 µM | SW-620 28.3 µM | T47D 29.9 µM | TK-10 28.4 µM | U-251 19.1 µM | UO-31 29.6 µM

C/C=C(/C)C(=O)O[C@H]1C(C)=C[C@]23C(=O)[C@@H](C=C(COC(C)=O)[C@@H](O)[C@]12O)[C@H]1[C@@H](C[C@H]3C)[C@@]1(C)OC(=O)/C(C)=C\C
active: A549 0.15 µM | ACHN 0.546 µM | COLO 205 0.0596 µM | HL-60 0.094 µM | NCI-H460 0.0244 µM | UO-31 0.442 µM
2.96 µM: HCT-15
inactive: 786-0 1.52 µM | HCC 2998 1.49 µM | M14 2.29 µM | MDA-MB-435 2.13 µM | NCI-H23 2.42 µM | OVCAR-8 3.72 µM | PC-3 1.4 µM | SNB-19 3.01 µM | SNB-75 1.52 µM | SW-620 2.55 µM | T47D 1.22 µM | TK-10 2.72 µM | U-251 2.45 µM
